US5196568A, “Compounds useful in enzymatic resolution systems and their preparation” (priority 1988, dated 1993)
Values after ≈ are worked out from the molar mass of the structure shown. Structures can show the parent of a compound that is named as a salt. Each block holds one compound with its values, some of them ahead of it.

Legend:
[1] = Solubility of esters, absorbance of saturated solutions at 262 nm; format: physicochemical; details: for Solubility: saturated solution, pH 7 (50 mM phosphate buffer), room temperature; for water solubility: in water
[2] = tested on: protease Prozyme 6 (Enzyme F); experiment: Homogeneous aqueous enzymatic resolution with Enzyme F; format: biochemical, Aspergillus oryzae; details: for % e.e.: naproxen acid product (R), 100 mg Prozyme 6, pH 7.0, 25 C
Procedure: The enzymatic reaction mixtures were capped and briefly shaken until all the substrate had dissolved, and the enzyme had completely dissolved or dispersed. […] Evaporation of the ether left a white solid. The result is summarized below in Table 11 Rotations were measured at c=1 in CHCl3.
The enzymatic reaction mixtures were capped and briefly shaken until all the substrate had dissolved, and the enzyme had completely dissolved or dispersed. […] Evaporation of the ether left a white solid. Rotations were measured at c=1 in CHCl3.
The reaction was started by adding 100 mg of the protease (F) from the fungus Aspergillus oryzae (from Amano Enzyme Corporation, Prozyme 6, 60,000 units per mg of solid).
After 20 hours at room temperature, the solution was acidified to pH 2 and extracted with 3 volumes of diethyl ether. The aqueous phase was saved for subsequent workup. The ether phase was washed with two volumes of distilled water and then one volume of saturated sodium chloride, and then it was dried over MgSO4 and subsequently evaporated to dryness. The resolved ibuprofen product recovered was 930 mg of white powder, indicating 45% conversion of racemic ester to acid. The optical rotation was -0.580° (measured at c=1 in ethanol), indicating the R isomer of ibuprofen.
35 mg of protease Enzyme F, as the commercial preparation Prozyme 6, were added to the aqueous solution. The reaction flask was capped, and briefly shaken until all the enzyme had dissolved or dispersed. […] The resulting mixture was diluted with one volume of water and was extracted with diethyl ether (2 times 200 ml). The ether layers were combined and backwashed with water (2 times 200 ml), saturated NaCl solution (200 ml), and then dried over MgSO4.
In this control run, a 0.5M ester solution of (1) was prepared in 325 ml of 0.1M sodium phosphate buffer (pH 7.0). The reaction was started by adding 3 gm of the above enzyme (F). The pH was controlled at 7.0 with 8.22M sodium hydroxide. After 6.49 hours at 30° C., 6.63 ml of hydroxide were added, indicating 37.7% conversion. The reaction was allowed to continue overnight and, after 23.1 hours, a total of 7.2 ml of sodium hydroxide were added, indicating 40.9% conversion.

[3] = tested on: Protease XXIII from Aspergillus oryzae (Enzyme A); experiment: Homogeneous aqueous enzymatic resolution (ester hydrolysis) with Enzyme A; format: biochemical; details: 100 mg enzyme A
Procedure: No further purification was performed.

[4] = biological target: T1, Protease VIII "Subtilopeptidase A" (Enzyme B) (Bacillus licheniformis, UniProt P00780); experiment: Rates of hydrolysis of the two enantiomers, pH stat, Enzyme B; format: biochemical; details: for Rate (hydrolysis): 50 mM ester, 50 mM Na3PO4 buffer pH 7.6
T1 sequence (P00780 106-379): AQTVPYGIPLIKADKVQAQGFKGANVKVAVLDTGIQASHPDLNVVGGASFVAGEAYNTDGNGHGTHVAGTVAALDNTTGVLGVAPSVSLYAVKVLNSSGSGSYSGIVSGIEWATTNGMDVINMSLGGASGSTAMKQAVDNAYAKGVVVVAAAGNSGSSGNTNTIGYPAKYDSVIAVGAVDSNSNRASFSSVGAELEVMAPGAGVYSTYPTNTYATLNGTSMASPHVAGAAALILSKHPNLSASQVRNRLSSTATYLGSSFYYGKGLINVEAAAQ
Procedure: (§1) 15 ml of a solution containing one enantiomer of the ester at a concentration of 50 mM, and Na3 PO4 buffer at 50 mM and pH 7.6 was observed using a pH stat device. 0.1 ml of a 50 mg/ml solution of enzyme B, made up from the commercially available preparation in 50 mM Na3 PO4 buffer at pH 7.6, were added. Rates of hydrolysis of both enantiomers of the ester compound were determined for the enzyme. The ratio of the rates of hydrolysis for the two enantiomers for the two enantiomers with respect to the enzyme indicate the stereospecificity of that enzyme's hydrolytic action on the racemic mixture of the ester. No evidence for the hydrolysis of the acetylthio ester portion of the substrate molecule was found.

[5] = tested on: Protease XIV from Streptomyces griseus (Enzyme I); experiment: Rates of hydrolysis of the two enantiomers, pH stat, Enzyme I; format: biochemical; details: for Rate (hydrolysis): 50 mM ester, pH 7.6
Procedure: as §1, with “solution of protease enzyme I,” for “solution of enzyme B,”, “protease enzyme I, made up” for “of enzyme B, made up”, “for the protease enzyme. The” for “for the enzyme. The”

[6] = tested on: Protease XXIII from Aspergillus oryzae (Enzyme A); experiment: Rates of hydrolysis of the two enantiomers, pH stat, Enzyme A; format: biochemical; details: for Rate (hydrolysis): 50 mM ester, pH 7.6
Procedure: 15 ml of a solution containing one enantiomer of the ester at a concentration of 50 mM, and Na3 PO4 buffer at 50 mM and pH 7.6 was observed using a pH stat device. 0.1 ml of a 50 mg/ml solution of enzyme A, made up from
as §1, with “the” for “15 ml of a solution containing one enantiomer of the ester at a concentration of 50 mM, and Na3 PO4 buffer at 50 mM and pH 7.6 was observed using a pH stat device. 0.1 ml of a 50 mg/ml solution of enzyme B, made up from the”

[7] = biological target: T2, Protease XXIV bacterial protease (Enzyme J) (Bacillus licheniformis, UniProt P00780); experiment: Rates of hydrolysis of the two enantiomers, pH stat, Enzyme J; format: biochemical; details: for Rate (hydrolysis): 50 mM ester, pH 7.6
T2 sequence (P00780 106-379): T1 sequence (P00780 106-379)
Procedure: as §1, with “Enzyme J,” for “enzyme B,”

[8] = biological target: T3, Protease XXVII "Nagarse" (Enzyme D) (Bacillus amyloliquefaciens, UniProt P00782); experiment: Rates of hydrolysis of the two enantiomers, pH stat, Enzyme D; format: biochemical; details: for Rate (hydrolysis): 50 mM ester, pH 7.6
T3 construct: purchased Protease XXVII
T3 sequence (P00782 108-382): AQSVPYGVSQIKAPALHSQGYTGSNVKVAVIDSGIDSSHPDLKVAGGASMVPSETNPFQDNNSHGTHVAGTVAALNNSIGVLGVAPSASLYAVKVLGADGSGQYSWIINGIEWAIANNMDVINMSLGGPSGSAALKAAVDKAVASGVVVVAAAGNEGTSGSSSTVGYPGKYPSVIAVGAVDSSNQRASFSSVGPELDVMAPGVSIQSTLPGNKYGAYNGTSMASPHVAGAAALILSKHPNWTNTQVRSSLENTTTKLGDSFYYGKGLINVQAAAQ
Procedure: as §1, with “D,” for “B,”, “thioacetyl” for “acetylthio”

[9] = tested on: Candida lipase, Genzyme (Enzyme G); experiment: Asymmetric hydrolysis in a multiphasic bioreactor with Enzyme G
Procedure: 3.0 grams of the lipase were dissolved in 500 mls of distilled water; this solution was recirculated in an ultrafiltration mode from the shell into the lumen and back to the reservoir for 30 minutes. The ultrafiltrate was then collected until the reservoir was empty, and methyl isobutyl ketone (MIBK) was then pumped into the shell and recirculated at 400-450 ml/min with a 5-7 psig shell pressure to remove any remaining enzyme solution from the shell.
A reactor was prepared as described in Example 6.2.2.5 (naproxen) using essentially the same mode of loading the enzyme, 3.0 grams of Candida lipase (Enzyme G, from Genzyme Corporation) were ultrafiltered from the shell into the lumen. […] The module was then drained.
No organic solvent was required as the substrate is already a water-immiscible liquid. Phosphate buffer was immediately pumped into the lumen and recirculated at 400-450 ml/min.
The reaction was monitored by following acid production based on hydroxide titration data. […] The aqueous buffer was replaced after 76 minutes and acidified to pH 2.0 with concentrated HCl in the presence of about 200 ml of chloroform.

[10] = tested on: Candida lipase, Sigma L-1754 (Enzyme H); experiment: Asymmetric hydrolysis in a multiphasic bioreactor with Enzyme H
Procedure: The enzyme solution was recirculated from the shell side to the lumen side and back to the solution reservoir in an ultra-filtration mode. […] The procedure was completed in one hour.
The recirculation rate was 400 ml/min and the average pressure on the shell compartment was kept at 6.5 psi by adjusting a throttling valve at the shell side exit. On the lumen side 1 liter of 0.05M K2 PO4 was recirculated at a rate of 400 ml/min. The pH of the aqueous reservoir was kept at 7.0 by addition of 1M NaOH. The reactor was run continuously for 6.8 days.
The reaction progress and rate were monitored by following the caustic consumption.

SMILES: COCCOC(=O)C(C)c1ccc(CC(C)C)cc1 (centres unmarked) [Methoxyethyl ester of ibuprofen, reference compound]
Solubility [1]: 0.18 mM (≈ 47.6 µg/mL)

reaction completion ([2]; 35 mg Prozyme 6, 10 mmol ester in 100 ml 0.2M sodium phosphate pH 7.0, 30 C, 1 hour): 22.5%
SMILES: CC(Oc1ccc(Cl)cc1)C(=O)OCS(=O)(=O)O (centres unmarked) [Compound 17, Sodium Salt of the Sulfomethyl Ester of 2-(4-Chlorophenoxy)propanoic Acid]

conversion (enzymatic hydrolysis) ([3]; 2.0 gm ester in 400 ml 50 mM sodium phosphate pH 7.5, 25 degrees, 16 hours): 18% | enantiomeric excess of R isomer of naproxen (acid product) ([3]; pH 7.5, 25 degrees, 16 hours): 61.2% | enantiomeric excess of S isomer of Naproxen (from unconverted ester hydrolysed at pH 12) ([3]; pH 7.5, 25 degrees, 16 hours): 45.5%
SMILES: COc1ccc2cc(C(C)C(=O)OCS(=O)(=O)O)ccc2c1 (centres unmarked) [Compound 9, Sodium Salt of Sulfomethyl Ester of 2-(6-Methoxy-2-naphthyl)propanoic Acid]

Solubility [1]: 10 mM (≈ 2770 µg/mL)
SMILES: CC(C)Cc1ccc(C(C)C(=O)OCCN(C)C)cc1 (centres unmarked) [2-(N,N-dimethylamino)ethyl ester of ibuprofen, reference compound]

Solubility [1]: 2180 mM | % e.e. ([3]; acid product (R), pH 7.0, 20 hours, 20-22 C): > 99%
SMILES: CC(C)Cc1ccc(C(C)C(=O)OCC[N+](C)(C)C)cc1 (centres unmarked) [Compound 10, Iodide Salt of 2-(N,N,N-Trimethylammonium)ethyl Ester of 2-(4-Isobutylphenyl)propanoic Acid]

Solubility [1]: 1610 mM | % CONVERSION ([2]; 100 mg Prozyme 6, 10 mmol ester in 100 ml 0.2M phosphate buffer pH 7.0, 25 C, 18 hours): 34.0% | % e.e. ([2]; 18 hours): 21.6%
SMILES: COc1ccc2cc(C(C)C(=O)OCCC[N+](C)(C)C)ccc2c1 (centres unmarked) [Compound 12, Methyl Sulfate Salt of 3-(N,N,N-Trimethylammonium)propyl Ester of 2-(6-Methoxy-2-naphthyl)propanoic Acid]

SMILES: CC(=O)SC[C@H](C)C(=O)OCS(=O)(=O)O [Compound 15, Potassium Salt of the Sulfomethyl Ester of L-(+)-S-3-Acetylthio-2-methylpropanoic Acid]
Rate Ratio L/D [4]: 2.1 | Rate (hydrolysis) [4]: 135 umols/hr/mg | Rate Ratio L/D [5]: 1.7 | Rate (hydrolysis) [5]: 105 umols/hr/mg | Rate Ratio L/D [6]: 2.3 | Rate (hydrolysis) [6]: 12 umols/hr/mg | Rate Ratio L/D [7]: 1.1 | Rate (hydrolysis) [7]: 65 umols/hr/mg | Rate Ratio L/D [8]: 1.1 | Rate (hydrolysis) [8]: 29 umols/hr/mg

SMILES: COC(=O)C(C)c1ccc2cc(OC)ccc2c1 (racemic) [Compound 18, Methyl Ester of 2-(6-Methoxy-2-naphthyl)propanoic Acid]
average rate (hydrolysis) ([9]; first 45 minutes, 0.75M ester in MIBK, pH 8.50, 3.0 grams lipase): 35 µmol/h

water solubility [1]: roughly 0.4 mM | Solubility [1]: 0.4 mM (≈ 115 µg/mL)
SMILES: CC(C)Cc1ccc(C(C)C(=O)OCC(F)(F)F)cc1 (centres unmarked) [Compound 19, 2,2,2-Trifluoroethyl Ester of 2-(4-Isobutylphenyl)propanoic Acid]
average hydrolytic rate ([9]; first 60 minutes, neat liquid ester, pH 7.7, 3.0 grams lipase): 160 µmol/min | conversion to acid ([9]; over the next 76 hours): about 9.8% | average hydrolysis rate ([9]; over the next 76 hours, by titrimetry): 21 µmol/min

SMILES: CC(=O)SC[C@@H](C)C(=O)OCS(=O)(=O)O [Compound 14, Potassium Salt of the Sulfomethyl Ester of D-(-)-S-3-Acetylthio-2-methylpropanoic Acid]
Rate (hydrolysis) [4]: 65 umols/hr/mg | Rate (hydrolysis) [5]: 63 umols/hr/mg | Rate (hydrolysis) [6]: 5.3 umols/hr/mg | Rate (hydrolysis) [7]: 61 umols/hr/mg | Rate (hydrolysis) [8]: 27 umols/hr/mg

water solubility [1]: approximately 1.2 mM | Solubility [1]: 1.2 mM (≈ 265 µg/mL)
SMILES: CCCCCCCCOC(=O)C(C)Cl (centres unmarked) [Compound 20, Octyl Ester of 2-Chloropropanoic Acid]
initial ester hydrolyzed ([10]; at termination, 6.8 days): 41% | rate of ester hydrolysis ([10]; at the beginning of the experiment, pH 7.0, 30 grams lipase): 186 µmol/min | rate of ester hydrolysis ([10]; at the end (6.8 days)): 25 µmol/min

SMILES: COc1ccc2cc(C(C)C(=O)OCC[N+](C)(C)C)ccc2c1 (centres unmarked) [Compound 11, Methyl Sulfate Salt of 2-(N,N,N-Trimethylammonium)ethyl Ester of 2-(6-Methoxy-2-naphthyl)propanoic Acid]
% e.e. ([2]; 18 hours): 34.0%
